Laboratory results from patent publication US7595327B2, “Beta-sulfonamide hydroxamic acid inhibitors of tace/matrix metalloproteinase” (priority 2005, dated 2009).

Legend:
[1] = system: LPS-induced TNF-α secretion in human whole blood; experiment: Human whole blood assay for LPS-induced TNF-α secretion; assay type: cell-based; settings: Homo sapiens, LPS 100 ng/ml, read-out: TNF Secretion HWB IC50
Protocol: procedure is essentially as described in Newton, R. C., et al., (2001) Ann Rheum […]32, incorporated by reference herein in its entirety. The basic measurement of the assay is the percentage of inhibition of TNF-α secretion and the IC50 determination by a […] model-39 of LSW data analysis tool. 350 μl of fresh human blood drawn from healthy volunteers were pre-incubated with compounds for one hour at the various concentrations at 37° C. with turning generally, the final DMSO concentrations should be kept below 0.2%. At the end of cubation, LPS (Sigma, L2262) was added to the blood at 100 ng/ml and the samples were further incubated for 4 hours or overnight at 37° C. with constant rotation. At the end of the incubation period, 650 μl of serum-free medium was added to the blood samples and the samples were centrifuged at 1500 rpm for 15 minutes. 500 μl of supernate was collected and frozen at -80° C. The TNF-α and other proinflammatory cytokines were detected by ELISA assay according to the manufacturer's instruction (Biosource International, Inc., Camarillo, Calif.).

[2] = molecular target: T1, TACE (catalytic domain of the recombinant TACE protein) (Homo sapiens, UniProt P78536); experiment: TACE FRET assay using TACE Cat; assay type: biochemical; settings: FRET, pro-TNF-α substrate peptide; read-out: TACE IC50
T1 construct: The catalytic domain of the recombinant TACE protein was expressed and purified; made in house
Protocol: The procedure is essentially as described in Jin, G. et al., Analytical Biochemistry (2002) 302, 269-275, incorporated by reference herein in its entirety. […] K is the IC50. Generally, n and B are floated, noting that n (hill slope) should be close to 1 and B (background offset) to 0.
Pro-TNF-α substrate peptide Abz-[…]-Dpa (AnaSpec, San Jose, Calif., WARC-1) was prepared as a 2 mM stock solution in the TACE assay buffer (50 mM Tris-HCI, pH 7.4, 25 mM NaCl, 4% Glycerol, 0.005% Brij 35). The catalytic domain of the recombinant TACE protein was expressed and purified. The TACE protein (1 ug/ml) was pretreated with the inhibitors at various concentrations for 10 min at room temperature. The reaction was initiated by the addition of the substrate peptide. The increase in fluorescence was monitored at an Excitation of 320 nm and an Emission of 420 nm over a period of 10 min. The initial rate (slope) of the reaction was determined using a fluorescence plate reader (Molecular Devices, Spectra Max Gemini XS).

MMP-13 = MMP-13 (Homo sapiens, UniProt P45452); experiment: In-vitro fluorescence assay of MMP-13 activity; assay type: biochemical
Protocol: See Knight, C. […] […].
The method was essentially the same as for the determination of MMP-1 activity, described above, except that the final concentration of purified MMP in the assay was 0.5 nM, prepared by diluting with the assay buffer.

recombinant human MMP-2 = molecular target: T2, recombinant human MMP-2 (Homo sapiens, UniProt P08253); experiment: In-vitro fluorescence assay of MMP-2 activity; assay type: biochemical
T2 sequence (P08253 110-660): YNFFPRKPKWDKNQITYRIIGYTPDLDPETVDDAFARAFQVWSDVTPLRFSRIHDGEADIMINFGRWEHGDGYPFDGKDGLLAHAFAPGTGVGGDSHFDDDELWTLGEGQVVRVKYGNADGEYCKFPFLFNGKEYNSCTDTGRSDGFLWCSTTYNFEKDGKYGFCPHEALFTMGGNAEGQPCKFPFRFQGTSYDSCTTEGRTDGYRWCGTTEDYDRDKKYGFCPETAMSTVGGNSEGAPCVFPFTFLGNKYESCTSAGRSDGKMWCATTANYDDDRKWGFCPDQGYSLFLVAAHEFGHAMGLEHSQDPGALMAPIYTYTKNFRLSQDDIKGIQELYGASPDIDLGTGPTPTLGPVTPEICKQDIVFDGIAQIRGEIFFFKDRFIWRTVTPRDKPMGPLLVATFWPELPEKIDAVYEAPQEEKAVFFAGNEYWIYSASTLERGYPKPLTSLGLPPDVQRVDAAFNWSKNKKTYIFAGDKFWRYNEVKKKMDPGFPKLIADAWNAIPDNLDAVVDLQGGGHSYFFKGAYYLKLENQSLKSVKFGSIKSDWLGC

[3] = system: TNF-α secretion in Raw 264.7 cells; experiment: Cell-based assay for inhibition of TNF-α secretion in Raw cells; settings: Mus musculus, RAW264.7, LPS 100 ng/ml, 4 hr
Protocol: The basic measurement of the assay is the percentage of inhibition of TNF-α secretion and the IC50 determination by a fitting with the model-39 of LSW data analysis tool. […] Cells are split twice a week by scraping and 1 to 10 or 20 dilutions. For testing compounds, cells are cultured to confluence and are seeded the day before the experiment in 24 well culture dishes at 0.5 to 1 million/ml well. On the next morning, the medium from the overnight culture is replaced with the fresh growth medium. The compounds are added at various concentration at the 0.2% of final DMSO concentrations (10 μl of a 20% DMSO solution containing testing compounds is added to each well). The cells are pre-incubated with compounds for 1 hr. LPS (Sigma, L2262) is added to cells at a final concentration of 100 ng/ml (10 μl of a […] LPS solution freshly diluted from a 1 mg/ml LPS stock solution in PBS is added to each well) and cells are further incubated for 4 hr at 37° C. 1 ml of the supernatant was collected, cells are spun down and the supernatants are frozen at −80° C. until use. The TNF-α and other proinflammatory cytokines were detected by an ELISA assay according to the manufacturer's instructions (Biosource International, Inc., Camarillo, Calif. (For IL-1b measurement in Raw cells, one round of freeze and thaw of the cells was required).

T1 sequence (P78536 223-474 limits assumed): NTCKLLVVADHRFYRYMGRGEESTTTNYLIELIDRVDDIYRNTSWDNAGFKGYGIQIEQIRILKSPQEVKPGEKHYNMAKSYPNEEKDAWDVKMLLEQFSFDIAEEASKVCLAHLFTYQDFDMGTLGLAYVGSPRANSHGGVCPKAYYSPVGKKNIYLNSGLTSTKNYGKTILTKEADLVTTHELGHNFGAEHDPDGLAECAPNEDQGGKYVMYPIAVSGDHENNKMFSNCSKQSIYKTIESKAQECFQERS

SMILES	IC50 [1] [nM]	IC50 [2] [nM]	IC50 (MMP-13) [nM]	IC50 (recombinant human MMP-2) [nM]	IC50 [3] [nM]
Cc1cc(COc2ccc(S(=O)(=O)NC3CCN(CCO)CC3C(=O)NO)cc2)c2ccccc2n1 (mixture of isomers) [Example 32, 1-(2-Hydroxy-ethyl)-4-[4-(2-methyl-quinolin-4-ylmethoxy)-benzenesulfonylamino]-piperidine-3-carboxylic acid hydroxyamide]	1900	3.2	> 10000	> 10000	180
Cc1cc(COc2ccc(S(=O)(=O)N(C)[C@@H]3[C@@H]4CC[C@@H](C4)[C@@H]3C(=O)NO)cc2)c2ccccc2n1 (relative stereo) [Example 5, endo-N-Hydroxy-3-[methyl({4-[(2-methylquinolin-4-yl)methoxy]phenyl}sulfonyl)amino]bicyclo[2.2.1]heptane-2-carboxamide]	9600	1.1	> 16700	> 16700	52
Cc1cc(COc2ccc(S(=O)(=O)N(C)[C@@H]3CC=CC[C@@H]3C(=O)NO)cc2)c2ccccc2n1 (relative stereo) [Example 15, cis-N-Hydroxy-6-[methyl({4-[(2-methylquinolin-4-yl)methoxy]phenyl}sulfonyl)amino]cyclohex-3-ene-1-carboxamide]	> 50000	2.6	> 16700	> 16700	> 1000
C#CCN1C[C@H](C(=O)NO)[C@H](NS(=O)(=O)c2ccc(OCc3cc(C)nc4ccccc34)cc2)C1 (relative stereo) [Example 18, cis-N-Hydroxy-4-[({4-[(2-methylquinolin-4-yl)methoxy]phenyl}sulfonyl)amino]-1-prop-2-yn-1-ylpyrrolidine-3-carboxamide]	1000	0.7	> 10000	> 10000	90
Cc1cc(COc2ccc(S(=O)(=O)N[C@@H]3CN(C(=O)OC(C)(C)C)C[C@@H]3C(=O)NO)cc2)c2ccccc2n1 (relative stereo) [Example 21, tert-Butyl cis-3-[(hydroxyamino)carbonyl]-4-[({4-[(2-methylquinolin-4-yl)methoxy]phenyl}sulfonyl)amino]pyrrolidine-1-carboxylate]	1300	< 0.6	4890	8800	38
Cc1cc(COc2ccc(S(=O)(=O)N(C)[C@@H]3CCOCC3C(=O)NO)cc2)c2ccccc2n1 (stereo in doubt) [Example 25, (3S,4R)-4-{Methyl-[4-(2-methyl-quinolin-4-ylmethoxy)-benzenesulfonyl]-amino}-tetrahydro-pyran-3-carboxylic acid hydroxyamide]	> 50000	7.9	> 16700	> 16700	> 1000
Cc1cc(COc2ccc(S(=O)(=O)N(C)[C@H]3COC[C@H]3C(=O)NO)cc2)c2ccccc2n1 (stereo in doubt) [Example 27, (3S,4R)-4-{Methyl-[4-(2-methyl-quinolin-4-ylmethoxy)-benzenesulfonyl]-amino}-tetrahydro-furan-3-carboxylic acid hydroxyamide]	41000	1.4	> 16700	> 16700	929

More lines, now with the values ahead:

IC50 [1] [nM]	IC50 [2] [nM]	IC50 (MMP-13) [nM]	IC50 (recombinant human MMP-2) [nM]	IC50 [3] [nM]	SMILES
50	0.9	6630	> 10000	20	CC(=O)N1CCC(NS(=O)(=O)c2ccc(OCc3cc(C)nc4ccccc34)cc2)C(C(=O)NO)C1 (mixture of isomers) [Example 31, 1-Acetyl-4-[4-(2-methyl-quinolin-4-ylmethoxy)-benzenesulfonylamino]-piperidine-3-carboxylic acid hydroxyamide]
4900	< 0.6	> 16700	> 16700	25	Cc1cc(COc2ccc(S(=O)(=O)N[C@]3(C)CCCC[C@@H]3C(=O)NO)cc2)c2ccccc2n1 (racemic) [Example 60, (1S,2R)-N-hydroxy-2-methyl-2-[({4-[(2-methylquinolin-4-yl)methoxy]phenyl}sulfonyl)amino]cyclohexanecarboxamide (racemic)]
740	0.6	> 16700	> 16700	11	Cc1cc(COc2ccc(S(=O)(=O)N[C@@H]3CCC[C@@H]3C(=O)NO)cc2)c2ccccc2n1 (relative stereo) [Example 11, cis-N-Hydroxy-2-[({4-[(2-methylquinolin-4-yl)methoxy]phenyl}sulfonyl)amino]cyclopentanecarboxamide]
4500	1.8	> 16700	> 16700	60	Cc1cc(COc2ccc(S(=O)(=O)N[C@@H]3CCCC[C@H]3C(=O)NO)cc2)c2ccccc2n1 (relative stereo) [Example 14, trans-N-Hydroxy-2-[({4-[(2-methylquinolin-4-yl)methoxy]phenyl}sulfonyl)amino]cyclohexanecarboxamide]
4780	< 0.6	13700	9740	93	Cc1cc(COc2ccc(S(=O)(=O)N(C)[C@@H]3CCC[C@@H]3C(=O)NO)cc2)c2ccccc2n1 (relative stereo) [Example 16, cis-N-Hydroxy-2-[methyl({4-[(2-methylquinolin-4-yl)methoxy]phenyl}sulfonyl)amino]cyclopentanecarboxamide]
200	< 0.6	≥ 10000	> 10000	20	CC(=O)N1C[C@H](C(=O)NO)[C@H](NS(=O)(=O)c2ccc(OCc3cc(C)nc4ccccc34)cc2)C1 (relative stereo) [Example 19, cis-1-acetyl-N-Hydroxy-4-[({4-[(2-methylquinolin-4-yl)methoxy]phenyl}sulfonyl)amino]pyrrolidine-3-carboxamide]
230	0.8	> 16700	> 16700	17	Cc1cc(COc2ccc(S(=O)(=O)N[C@@H]3CCOCC3C(=O)NO)cc2)c2ccccc2n1 (stereo in doubt) [Example 24, (3S,4R)-4-[4-(2-Methyl-quinolin-4-ylmethoxy)-benzenesulfonylamino]-tetrahydro-pyran-3-carboxylic acid hydroxyamide]
